The results in this text go back to PMC7115410 (European Journal of Medicinal Chemistry, 2018).

Test [1] concerns Chk1 phosphorylation. The conditions noted are these: HCT116 cells.
The test system of test [2] is Chk1 phosphorylation. Conditions: FOLFOX-HT29 cells, different concentrations, 24 h.
In a further test the test system is γH2AX. The conditions noted are these: HCT-116 cells, 7b (5, 10 and 20 μM), 24 h.
For test [3], the system named is cleaved caspase 3, cleaved PARP 1, Bax, Bcl2. The conditions noted are these: FOLFOX-HCT116 cells, different concentrations, 24 h.
For test [4] the test system is unchanged. The conditions noted are these: FOLFOX-HT29 cells, different concentrations, 24 h.
Another test has as its system HCT116 cells. Conditions: 25 μM 5-FU alone.
The next test has as its target Chk1 (Homo sapiens, UniProt O14757). The conditions noted are these: in vitro Chk1 kinase assay, purified Chk1 protein.

Like-named read-outs stand apart in the source and are kept apart here.

Chk1, sequence (O14757 whole entry): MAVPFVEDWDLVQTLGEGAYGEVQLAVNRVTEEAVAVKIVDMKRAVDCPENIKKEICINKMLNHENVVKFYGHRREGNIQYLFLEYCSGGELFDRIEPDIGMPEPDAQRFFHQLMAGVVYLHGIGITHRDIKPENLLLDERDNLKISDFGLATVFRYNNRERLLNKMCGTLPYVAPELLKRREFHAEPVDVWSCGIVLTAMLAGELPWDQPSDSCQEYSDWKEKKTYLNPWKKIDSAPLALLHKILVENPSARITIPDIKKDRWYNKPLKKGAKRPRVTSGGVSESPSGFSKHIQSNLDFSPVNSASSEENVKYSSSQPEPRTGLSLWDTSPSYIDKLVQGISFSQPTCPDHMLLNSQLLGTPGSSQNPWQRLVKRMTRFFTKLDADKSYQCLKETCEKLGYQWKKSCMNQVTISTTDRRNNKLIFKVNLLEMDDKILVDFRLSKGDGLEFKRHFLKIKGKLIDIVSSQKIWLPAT

Consider “1-(3-Phenyl-allyl)-3,5,7-triaza-1-azonia-tricyclo[3.3.1.1^3,7]decane; chloride [Compound 7b]”, for which the “HU-induced phosphorylation of Chk1(S317P), Chk1(S345P) and Chk1(S296P)” value in the test on Chk1 phosphorylation [1] (1 mM HU for 24 h followed by 20 μM 7b for additional 8 h) is given as “reduced after combination treatment”. The “Chk1(S345P) phosphorylation” value in the test with Chk1 phosphorylation [2] is listed as “increase”. Further, the “γH2AX-foci, compound alone” value with γH2AX is “increased γH2AX-foci”. In addition, the “Levels of cleaved caspase 3 and PARP1” value in test [3] and in test [4] was “increased levels” in each case.
Turning to `O=c1[nH]cc(F)c(=O)[nH]1` [Compound 5-FU, 5-fluorouracil], in the test on HCT116 cells, the Cell cycle profile entry is “S phase arrest”.
With `ClC/C=C/C[N+]12CN3CN(CN(C3)C1)C2.[Cl-]` [Compound 7a, 1-(4-Chloro-but-2-enyl)-3,5,7-triaza-1-azonia-tricyclo[3.3.1.1^3,7]decane; chloride], at Chk1, the “Inhibition of Chk1 activity in a reconstituted purified system” value is listed as “do not inhibit”. Besides, the “Chk1(S345P) phosphorylation” value in the test on Chk1 phosphorylation [2] is given as “increase”. Further, the “Levels of cleaved caspase 3 and PARP1” value in test [3] and in test [4] was “increased levels” each time.
In the case of `NC(=O)NO` [HU, hydroxyurea, reference compound], the “Phosphorylation of Chk1(S317P), Chk1(S345P) and Chk1(S296P)” value in the test on Chk1 phosphorylation [1] (1 mM HU alone) is “high level phosphorylation”.
